The results in this text go back to EP2487171A1, “Dihydrobenzopyran, thiochroman, tetrahydroquinoleine and tetrahydronaphthalene derivatives and their use in anti-cancer therapy” (Université de Liège, priority 2011, dated 2012).

One test deals with U373. The test is described as follows: MTT colorimetric assay, overall cell growth. Particulars: Homo sapiens, U373 MG; U373 cells, 72 hours of incubation; read-out: IC50 (µM) In Vitro Growth Inhibitory Concentrations (MTT Colorimetric Assay) U373. Type of test: cell-based. (In general: Formazan colour is commonly taken as a measure of viable cells.)
The subject of another test is Hs683. Put plainly: MTT colorimetric assay, overall cell growth. Type of test: cell-based. The note with it: Homo sapiens, Hs 683; Hs683 cells, 72 hours of incubation; read-out: IC50 (µM) In Vitro Growth Inhibitory Concentrations (MTT Colorimetric Assay) Hs683.
In another test the test system is T98G. The test is described as follows: MTT colorimetric assay, overall cell growth. The note with it: Homo sapiens, 72 h, read-out: IC50 (µM) In Vitro Growth Inhibitory Concentrations (MTT Colorimetric Assay) T98G.
The subject of test [1] is human U373 glioma cell line. Put plainly: Quantitative videomicroscopy (computer-assisted phase-contrast microscopy). Type of test: cell-based. The note with it: U373 cells treated at the IC50 concentration from MTT, filmed for 72h; cytostatic versus cytotoxic effects. From the text:
In addition, the inventors could establish that the compounds of the invention act through a non-apoptosis-related mechanism thanks to a unique experimental approach used by the inventors, i.e. computer-assisted phase-contrast microscopy (quantitative videomicroscopy), making them good candidates as anti-cancer drugs for treating apoptosis-resistant tumor or cancer cells and for overcoming problems linked to the known anti-cancer drugs.
As the MTT test is based on the mitochondria functions, we also investigated the effects of the compounds according to the invention on cell proliferation, migration and morphology by means of a cellular imaging approach (Debeir et al., Cytometry 60:29-40, 2004; Debeir et al., IEEE Trans Med Imaging 24:697-711, 2005) in the human U373 glioma cell line, which is apoptosis-resistant but autophagy-sensitive (Lefranc F et al., Neurosurgery 2008).
Cellular imaging relied on the use of computer-assisted phase-contrast microscopy making possible to film the behaviour of living cells in culture dishes for several days.
Cells were seeded in a 25-cm^2 flask at a low density, treated or not with the compounds of the invention (at their IC50 concentration determined previously by MTT tests) and filmed thereafter for a period of 72h. The experiment was conducted in triplicate.
The behaviour of the cells, in terms of morphology, growth and death were thus investigated. The effect on the overall growth was measured by counting the number of cells on the first (0h) and the last image (72h) of each film. The global growth ratio (GGR) was then deduced by dividing the number of cells on the last image by the number of cells on the first image. The ratio GGRtreated cells / GGRcontrol cells, was further calculated thereby obtaining a value that describes the effect of compounds of the present invention on the overall cell growth.
The methodology is fully described and validated in Debeir et al., 2008, Exp Cell Res 314:2985-2998 and Mathieu et al., 2009, J Cell Mol Med, Feb 20, 2009.
Thanks to the quantitative videomicroscopy (QVM) approach, we classified the compounds into 4 distinctive classes on the basis of their cytostatic versus cytotoxic effects (Table 3). • Class I: actually cytostatic for 3 days (< 10 % of cell death at the 3rd day) • Class II: cytostatic but becomes cytotoxic with < 10% cell death on the 2nd day and > 20% of cell death on the 3rd day • Class III: cytostatic but rapidly becomes cytotoxic with < 10% cell death on the 1st day, > 20% of cell death on the 2nd day and > 50% of cell death on the 3rd day • Class IV: cytotoxic (> 50% of cell death on the first day)
In Fig. 1a, compounds of example 14 (5 µM), example 19 (20 µM) and example 23 (5 µM) belong to QVM Class I because they display cytostatic effects on human U373 GBM cells during the whole duration of the experiment. Cytostatic effects mean that < 10 % of cell death was recorded at the end of the experiment, i.e. at the end of the 3rd day. QVM analyses enable the global growth ratio (GGR) to be calculated in each experiment. The GGR index is obtained by dividing the number of cells in the last image by the number of cells in the first image of the experiment, knowing that 1080 images are taken during the 72 h-period of observation. The ratio GGR^treated cells / GGR^control cells was further calculated thereby obtaining a value that describes the effect of compounds on the overall cell growth. Thus, a GGR index of 0.2 means that they remain only 20% of treated cells compare to the control cells at the end of the experiment.

Structures are written as SMILES.

Method for Hs683: The compounds and particularly dihydrobenzopyran, thiochroman, tetrahydroquinoleine and tetrahydronaphthalene derivatives of the invention were evaluated for their anti-proliferative effect (by means of the colorimetric MTT assay), in the following human glioblastoma cell-lines U373, T98G and Hs683 and in the mouse glioma cell line GL261. Normal brain cells (primocultures from newborn mice) were also used in order to determine the bioselectivity (B^N/C) of the compounds of interest, i.e. the ratio between the concentrations that inhibits 50% of the growth of brain cancer (C) cells (glioma cells) and the concentration that inhibits 50% of the growth of normal (N) brain cells (primocultures of astrocytes). The ideal situation to be reached is a bioselectivity of B^N/C > 10.
(§1) MTT tests were performed in order to rapidly, i.e. within 5 days, measure the effect of compounds of this invention on the overall cell growth. The test measured the number of metabolically active living cells that were able to transform the yellow product 3-(4,5-dimethylthiazol-2-yl)-2,5-diphenyl tetrazolium bromide (herein referred as MTT) into the blue product formazan dye by mitochondrial reduction. The amount of formazan obtained at the end of the experiment, measured by means of a spectrophotometer, is directly proportional to the number of living cells. Optical density determination thus enabled a quantitative measurement of the effect of the investigated compounds as compared to the control condition (untreated cells) and/or to other reference compounds.
(§2) Three human cancer cell lines were used in the following MTT tests.
(§3) To perform the assay, cells were allowed to grow in 96-well micro-wells with a flat bottom with an amount of 100 µl of cell suspension per well with 1,000 to 8,000 cells/well depending on the cell type used. Each cell line was seeded in its appropriate culture medium.
(§4) The detailed experimental procedure was the following: after a 24-hour period of incubation at 37°C, the culture medium was replaced by 100 µl of fresh medium in which the tested compound was previously dissolved, at the following molar concentrations: 10^-8 M, 5.10^-8 M, 10^-7 M, 5.10^-7 M, 10^-6 M, 5.10^-6 M, 10^-5 M, 5.10^-5 M and 10^-4 M. Each experiment was performed in sextuplicate (6 times).
After 72 hours of incubation at 37°C with (experimental conditions) or without (control condition) the compound to be tested, the medium was replaced by 100 µl MTT dissolved in RPMI (1640 without phenol red) at a concentration of 0.5 mg/ml. The micro-wells were subsequently incubated during 3 hours and a half at 37°C and centrifuged at 1300 rpm during 10 minutes. MTT was removed and formazan crystals formed were dissolved in 100 µl DMSO. The micro-wells were shaken for 5 minutes and read on a spectrophotometer at wavelengths of 570 nm (maximal formazan absorbance).
(§5) For each experimental condition, the mean optical density was calculated, allowing the determination of the percentage of remaining living cells in comparison to the control.
Method for T98G: The compounds and particularly dihydrobenzopyran, thiochroman, tetrahydroquinoleine and tetrahydronaphthalene derivatives of the invention were evaluated for their anti-proliferative effect (by means of the colorimetric MTT assay), in the following human glioblastoma cell-lines U373, T98G and Hs683 and in the mouse glioma cell line GL261. Normal brain cells (primocultures from newborn mice) were also used in order to determine the bioselectivity (B^N/C) of the compounds of interest, i.e. the ratio between the concentrations that inhibits 50% of the growth of brain cancer (C) cells (glioma cells) and the concentration that inhibits 50% of the growth of normal (N) brain cells (primocultures of astrocytes).
as §1, §2, §3, §4
The micro-wells were subsequently incubated during 3 hours and a half at 37°C and centrifuged at 1300 rpm during 10 minutes. MTT was removed and formazan crystals formed were dissolved in 100 µl DMSO. The micro-wells were shaken for 5 minutes and read on a spectrophotometer at wavelengths of 570 nm (maximal formazan absorbance).
as §5

As to `CC(C)(C)OC(=O)Nc1ccc2c(c1)C(NC(=O)Nc1ccc([N+](=O)[O-])cc1)CC(C)(C)O2` (racemic) [Example 22, R/S-N-4-nitrophenyl-N'-(6-tert-butoxycarbonylamino-3,4-dihydro-2,2-dimethyl-2H-1-benzopyran-4-yl)urea], the IC50 in the test with U373 was determined as 24 µM; in the test with Hs683, 20 µM; in the test with T98G it was 26 µM. For the same molecule, the “QVM Class” value in test [1] is given as “IV (Class IV: cytotoxic (> 50% of cell death on the first day))”.

With `CC(C)(C)OC(=O)Nc1ccc2c(c1)C(NC(=O)Nc1ccc(F)cc1)CC(C)(C)O2` (racemic) [Example 18, R/S-N-4-fluorophenyl-N'-(6-tert-butoxycarbonylamino-3,4-dihydro-2,2-dimethyl-2H-1-benzopyran-4-yl)urea], the figures for the IC50 with U373, with Hs683 and in the test on T98G were 30 µM, 35 µM and 33 µM, respectively. For the same molecule, the “QVM Class” value in test [1] was “I (Class I: actually cytostatic for 3 days (< 10 % of cell death at the 3rd day))”.

On to `CC(C)(C)OC(=O)Nc1ccc2c(c1)C(NC(=O)Nc1ccc(Cl)cc1)CC(C)(C)O2` (racemic) [Example 17, R/S-N-4-chlorophenyl-N'-(6-tert-butoxycarbonylamino-3,4-dihydro-2,2-dimethyl-2H-1-benzopyran-4-yl)urea], for which the IC50 in the test on U373 is 22 µM; with Hs683, 26 µM; in the test on T98G, 26 µM. Moreover, the “QVM Class” value in test [1] was “III (Class III: cytostatic but rapidly becomes cytotoxic with < 10% cell death on the 1st day, > 20% of cell death on the 2nd day and > 50% of cell death on the 3rd day)”.

`CC(C)(C)OC(=O)Nc1ccc2c(c1)C(NC(=O)Nc1ccccc1C#N)CC(C)(C)O2` (racemic) [Example 36, R/S-N-2-cyanophenyl-N'-(6-tert-butoxycarbonylamino-3,4-dihydro-2,2-dimethyl-2H-1-benzopyran-4-yl)urea]: the IC50 was determined as 45 µM in the test with U373, 54 µM with Hs683 and 67 µM in the test with T98G. Further, the “QVM Class” value in test [1] is “I (Class I: actually cytostatic for 3 days (< 10 % of cell death at the 3rd day))”.

Regarding `CC(C)(C)OC(=O)Nc1ccc2c(c1)C(NC(=O)Nc1ccc(Cl)cc1)CCO2` (racemic) [Example 3, R/S-N-4-chlorophenyl-N'-(6-tert-butoxycarbonylamino-3,4-dihydro-2H-1-benzopyran-4-yl)urea], the IC50 with U373 was 11 µM; in the test on Hs683, above 100 µM; with T98G, above 100 µM.

As for `CC(C)(C)OC(=O)Nc1ccc2c(c1)C(NC(=O)Nc1cccc(F)c1)CC(C)(C)O2` (racemic) [Example 19, R/S-N-3-fluorophenyl-N'-(6-tert-butoxycarbonylamino-3,4-dihydro-2,2-dimethyl-2H-1-benzopyran-4-yl)urea], the IC50 came to 20 µM in the test on U373, 19 µM in the test on Hs683 and 26 µM in the test with T98G. The “QVM Class” value in test [1] is on record as “I (Class I: actually cytostatic for 3 days (< 10 % of cell death at the 3rd day))”.

In the case of `CC(C)(C)OC(=O)Nc1ccc2c(c1)C(NC(=O)Nc1cccc(C#N)c1)CCO2` (racemic) [Example 5, R/S-N-3-cyanophenyl-N'-(6-tert-butoxycarbonylamino-3,4-dihydro-2H-1-benzopyran-4-yl)urea], the IC50 in the test on U373 is 29 µM; in the test with Hs683, 25 µM; in the test with T98G it was 38 µM.

Consider `CC(C)(C)OC(=O)Nc1ccc2c(c1)C(NC(=O)Nc1ccc(Cl)c(C(F)(F)F)c1)CC(C)(C)O2` (racemic) [Example 33, R/S-N-4-chloro-3-trifluoromethylphenyl-N'-(6-tert-butoxycarbonylamino-3,4-dihydro-2,2-dimethyl-2H-1-benzopyran-4-yl)urea], for which the IC50 was 21 µM with U373, 22 µM with Hs683 and 23 µM in the test with T98G. Moreover, in test [1], the “QVM Class” value was “III (Class III: cytostatic but rapidly becomes cytotoxic with < 10% cell death on the 1st day, > 20% of cell death on the 2nd day and > 50% of cell death on the 3rd day)”.

Turning to `CC(C)(C)OC(=O)Nc1ccc2c(c1)C(NC(=O)Nc1cccc(Br)c1)CC(C)(C)O2` (racemic) [Example 20, R/S-N-3-bromophenyl-N'-(6-tert-butoxycarbonylamino-3,4-dihydro-2,2-dimethyl-2H-1-benzopyran-4-yl)urea], the values for the IC50 with U373, with Hs683 and in the test on T98G were 22 µM, 18 µM and 26 µM, respectively. Further, the “QVM Class” value in test [1] was “III (Class III: cytostatic but rapidly becomes cytotoxic with < 10% cell death on the 1st day, > 20% of cell death on the 2nd day and > 50% of cell death on the 3rd day)”.

`CC(C)(C)OC(=O)Nc1ccc2c(c1)C(NC(=O)Nc1c(Cl)cccc1C(F)(F)F)CC(C)(C)O2` (racemic) [Example 32, R/S-N-2-chloro-6-trifluoromethylphenyl-N'-(6-tert-butoxycarbonylamino-3,4-dihydro-2,2-dimethyl-2H-1-benzopyran-4-yl)urea]: the IC50 was 60 µM in the test with U373, 66 µM in the test with Hs683 and 60 µM in the test with T98G. Also, the “QVM Class” value in test [1] was “III (Class III: cytostatic but rapidly becomes cytotoxic with < 10% cell death on the 1st day, > 20% of cell death on the 2nd day and > 50% of cell death on the 3rd day)”.

Regarding `CC(C)(C)OC(=O)Nc1ccc2c(c1)C(NC(=O)Nc1ccc(C#N)cc1)CCO2` (racemic) [Example 6, R/S-N-4-cyanophenyl-N'-(6-tert-butoxycarbonylamino-3,4-dihydro-2H-1-benzopyran-4-yl)urea], the figures for the IC50 in the test on U373, in the test on Hs683 and with T98G were 42 µM, 30 µM and 39 µM, respectively.

Take `CC(C)(C)OC(=O)Nc1ccc2c(c1)C(NC(=O)Nc1ccccc1Cl)CC(C)(C)O2` (racemic) [Example 35, R/S-N-2-chlorophenyl-N'-(6-tert-butoxycarbonylamino-3,4-dihydro-2,2-dimethyl-2H-1-benzopyran-4-yl)urea]: the IC50 stood at 59 µM with U373, 34 µM in the test with Hs683 and 100 µM in the test with T98G.

With `CC(C)(C)OC(=O)Nc1ccc2c(c1)C(NC(=O)Nc1ccccc1Cl)CCO2` (racemic) [Example 1, R/S-N-2-chlorophenyl-N'-(6-tert-butoxycarbonylamino-3,4-dihydro-2H-1-benzopyran-4-yl)urea], the IC50 with U373 came to 26 µM; with Hs683, 23 µM; in the test on T98G it was 24 µM.

Take `CC(C)(C)OC(=O)Nc1ccc2c(c1)C(NC(=O)Nc1ccccc1C#N)CCO2` (racemic) [Example 4, R/S-N-2-cyanophenyl-N'-(6-tert-butoxycarbonylamino-3,4-dihydro-2H-1-benzopyran-4-yl)urea]: the figures for the IC50 in the test on U373, in the test with Hs683 and in the test with T98G were 53 µM, 44 µM and 65 µM, respectively.

With `CC(C)(C)OC(=O)Nc1ccc2c(c1)C(NC(=O)Nc1cccc(Cl)c1)CCO2` (racemic) [Example 2, R/S-N-3-chlorophenyl-N'-(6-tert-butoxycarbonylamino-3,4-dihydro-2H-1-benzopyran-4-yl)urea], the IC50 amounted to 19 µM in the test with U373, 28 µM with Hs683 and 29 µM in the test on T98G.
